# Earlier results, collected in patent US7101842B2, “Targeted delivery of drugs for the treatment of parasitic infections” (priority 2001, dated 2006).
# Tested on: trypanosomiasis
# Conditions: patients treated for sleeping sickness
smiles,measurement,value
Nc1nc(N)nc(Nc2ccc([As]3SCC(CO)S3)cc2)n1 (centres unmarked) [melarsopral],fatal encepholopathy in recipients,5–7%
same,relapse rates,≤ 10%
